For experiment [1], the system named is Wild Strain General Bacteria. Kind of experiment: MIC, microtiter plate, general aerobic bacteria from produced water. The experiment is classed as cell-based, Pseudomonas aeruginosa and Enterobacter aggolomerans. The protocol: (§1) The ability of an BF to inhibit microorganisms was investigated. Specifically, three bacteria types were tested to compare the MIC of a biocide, a biochelant and IBFs of the present disclosure. The bacteria types utilized were isolated from produced water from the Marcellus shale formation, and identified as (i) general aerobic bacteria identified as Pseudomonas aeruginosa and Enterobacter aggolomerans (ii) Wild strain sulfate reducing bacteria and (iii) acid producing bacteria. General aerobic bacteria aid in the formation of biofilms. Most of these bacteria will be found either floating freely in water (planktonic organisms) or will be attached to various surfaces (sessile organisms). Wild strain Sulfate Reducing Bacteria and Acid Producing Bacteria isolated from the produced fluid was also used. Wild strain Sulfate Reducing Bacteria (WSRB) are the most common anaerobic organisms found in the oil and gas industry. WSRB are an issue as they will reduce sulfate into sulfides which can turn into hydrogen sulfide, souring the fluid in the oil and gas well.
(§2) The bacteria tested were placed in a microtiter plate, where a high throughput test was performed to determine MIC (minimum inhibitor concentration). […] The BE contained 1:1 biocide:biochelant each at 50 ppm.

The next experiment deals with Wild Strain APB. Kind of experiment: MIC, microtiter plate, wild strain acid producing bacteria. The experiment is classed as cell-based. The protocol: as §1, §2
For experiment [2], the system named is bacteria isolated from produced water from the Marcellus shale formation. The experiment in a line: MIC, Example 1, maximum reduction over the three bacteria types. The settings on record: biocide used in conjunction with biochelants, versus biocide alone. The experiment is classed as cell-based. The protocol: as §1, §2
The subject of experiment [3] is General Wild Strain Bacteria. Kind of experiment: MIC, Example 2, TTPC and bleach. The class given is cell-based. From the text: The biocides used were tributyl tetradecyl phosphonium chloride (TTPC, BELLACIDE 350) and household bleach.
The next experiment has as its system Wild Strain SRB. Kind of experiment: MIC, microtiter plate, wild strain sulfate reducing bacteria. The class given is cell-based. The protocol: as §1, §2
Another experiment has as its system Pseudomonas aeruginosa. The experiment in a line: MIC, Example 3, quaternary ammonium biocides.
In the next experiment the test system is Staphylococcus aureus. Kind of experiment: MIC, Example 3, quaternary ammonium biocides.
The subject of a further experiment is Escherichia coli. Kind of experiment: MIC, Example 3, quaternary ammonium biocides.
The test system of another experiment is Klebsiella pneumoniae. Kind of experiment: MIC, Example 3, quaternary ammonium biocides.
The mark [4] stands for this setting: Wild Strain General Bacteria, IBF 1:1 biocide:biochelant, read-out: MIC.
The mark [5] stands for this setting: Wild Strain APB, IBF 1:1 biocide:biochelant, read-out: MIC.
[6] abbreviates: General Wild Strain Bacteria, read-out: MIC.

In brackets after ≈: the same amount, converted by molar mass. Like-named read-outs stand apart in the source and are kept apart here.

Source text for Escherichia coli: (§3) The ability of an IBF to inhibit microorganisms was investigated. The biocides used as components of the IBF were quaternary ammonium compounds. […] The bacterial strains tested were Pseudomonas aeruginosa, Staphylococcus aureus, Escherichia coli and Klebsiella pneumoniae.
Source text for Klebsiella pneumoniae: as §3
Source text for Pseudomonas aeruginosa: as §3
Source text for Staphylococcus aureus: as §3

As for `O=[N+]([O-])C(Br)(CO)CO` [10% BRONOPOL, 2-bromo-2-nitro-1,3-propanediol], the MIC is 125 µg/mL (≈ 0.625 mM) in experiment [1] (setting [4]) and 62.5 µg/mL (≈ 0.313 mM) in the experiment with Wild Strain APB (setting [5]). Moreover, the “maximum MIC reduction” value in experiment [2] is on record as 98%.

On to `O=CCCCC=O` [50% Glut, glutaraldehyde], for which the MIC in experiment [1] (setting [4]) turned out to be 1000 µg/mL (≈ 9.99 mM); in the experiment with Wild Strain APB (setting [5]) it was 500 µg/mL (≈ 4.99 mM).

In the case of `CCCCCCCCCCCCCC[P+](CCCC)(CCCC)CCCC.[Cl-]` [Bellacide 350 (TTPC), tributyl tetradecyl phosphonium chloride], the MIC worked out at 500 µg/mL in experiment [3] (setting [6]) and 15.6 µg/mL in [3] (General Wild Strain Bacteria, with biochelant, read-out: MIC of the biocide as a component of an IBF).

In the case of `O=C(O)[C@H](O)[C@@H](O)[C@H](O)[C@H](O)CO` [G050, gluconic acid], the MIC was determined as 10000 µg/mL (≈ 51 mM) in experiment [1]; 312 µg/mL (≈ 1.59 mM) with Wild Strain SRB; 625 µg/mL (≈ 3.19 mM) with Wild Strain APB; 10000 µg/mL (≈ 51 mM) in [3]; 5000 µg/mL (≈ 25.5 mM) against Pseudomonas aeruginosa; 5000 µg/mL (≈ 25.5 mM) with Staphylococcus aureus. In addition, the MIC against Escherichia coli and against Klebsiella pneumoniae was 5000 µg/mL (≈ 25.5 mM) throughout.

`O=C(O)[C@@H](O)[C@@H](O)[C@H](O)[C@@H](O)C(=O)O` [GA50, glucaric acid]: the MIC in [1] (setting [4]) is 2500 µg/mL (≈ 11.9 mM); in the experiment on Wild Strain APB (setting [5]) it was 625 µg/mL (≈ 2.97 mM); in experiment [3] (setting [6]), 2500 µg/mL (≈ 11.9 mM); in the experiment with Pseudomonas aeruginosa, 1250 µg/mL (≈ 5.95 mM); against Staphylococcus aureus, 5000 µg/mL (≈ 23.8 mM); against Escherichia coli, 625 µg/mL (≈ 2.97 mM). This molecule had an MIC in the experiment on Klebsiella pneumoniae of 1250 µg/mL (≈ 5.95 mM).

With “tetrakis hydroxymethyl-phosphonium sulfate [75% THPS]”, the MIC in [1] (Wild Strain General Bacteria, IBF 1:1 biocide:biochelant) worked out at 1000 ppm; against Wild Strain SRB (Wild Strain SRB, IBF 1:1 biocide:biochelant) it was 1000 ppm; in the experiment with Wild Strain APB (Wild Strain APB, IBF 1:1 biocide:biochelant), 62.5 ppm. Moreover, the “maximum MIC reduction” value in [2] was found to be 97%.

The record behind these values is patent US20260231947A1, “IMPROVED BIOCIDE COMPOSITIONS” (Solugen, Inc., priority 2021, published 2026).
